# Tests used:
# [1] = test system: murine subretinal scar model; assay: Test on inhibition of murine subretinal scar formation; assay type: in vivo, mouse C57BL/6; details: 7 days after injection
# Description: (Test on Inhibition of Murine Subretinal Scar Formation)
# A murine subretinal scar model was produced to study whether the benzoic acid of the invention has an effect of inhibiting subretinal scar formation. A subretinal scar model in a mouse was produced by the method shown below in accordance with the method of Young-joon et al (Investigative Ophthalmology & Visual Science, 52, 6089-6095([…])).
# (Production of Murine Subretinal Scar Model)
# First, laser was irradiated (0.05 seconds, 200 mW, 532 nm) onto one location on the posterior pole of fundus of mouse C57BL/6 (purchased from SLC) to destroy the Bruch's membrane, which enabled infiltration of inflammatory cells from the choroid as well as creation of air bubbles subretinally.
# A 33G needle was then inserted from pars plana. 0.5 μl of 4×10^7 ml thioglycollate elicited peritoneal macrophage and 1 μg, 5 μg, or 50 μg of the benzoic acid of the invention were subretinally injected. For the control, the benzoic acid of the invention was not injected (0 μg).
# The subretinal area was observed and subretinal scar region was measure 7 days after injection of the macrophage and the benzoic acid of the invention described above.
# [2] = test system: murine retinal pigment epithelial cells; assay: Test on inhibition of three-dimensional collagen gel atrophy in murine retinal pigment epithelial cell; assay type: cell-based, mouse; details: 1 ng/ml TGF-B2; 0.01, 0.1 or 1 μM; gel diameter after 24 hours; FIG. 1
# Description: (Test on Inhibition of Three-Dimensional Collagen Gel Atrophy in Murine Retinal Pigment Epithelial Cell)
# Murine retinal pigment epithelial cells were used to assess the inhibition effect of a tested compound on three-dimensional collagen gel atrophy in accordance with the method of Nishida et al (Investigative Ophthalmology & Visual Science 42: 1247-1253 (2001)). A subretinal sheet-like pigment epithelial cell comprising a retinal pigment epithelial cell from a mouse eyeball was collected and grown in primary culture. The cultured cell was detached and collected from a culture slide with 0.05% Trypsin-EDTA. After washing twice in a serum free medium (MEM: product number 11095; Gibco), a serum-free medium was added to make a cell suspension. Type I collagen (3 mg/ml: product number 637-00653; Nitta Gelatin Inc.), 10×MEM, reconstitution buffer (product number 635-00791; Nitta Gelatin Inc.), cell suspension (1.1×10^7 cells/ml in MEM), and water were mixed on ice at the volume ratio of 7:1:1:0.2:1.8. A culture dish coated with 1% BSA was inoculated with the mixture (0.5 ml), which was incubated for one hour at 37° C. to make a collagen gel. Then, 0.5 ml each of serum free media, to which 1 ng/ml of TGF-B2 (R&D) and 0, 0.01, 0.1, or 1 μM of the benzoic acid of the invention were added, was added onto collagen gels and incubated at 37° C. The diameter of gels was measured after 24 hours. […]
structure (smiles),measurement,setting,value
"CC1(C)CCC(C)(C)c2cc(Cn3cccn3)c(/C=C/c3ccc(C(=O)O)cc3)cc21 [benzoic acid of the invention, (E)-4-(2-{3-[(1H-pyrazole-1-yl)methyl]-5,5,8,8-tetramethyl-5,6,7,8-tetrahydronaphthalene-2-yl}vinyl)benzoic acid]",subretinal scar region (fibrillation region),"[1]; 1 μg, 5 μg or 50 μg subretinally injected with macrophages, FIG. 2B",narrows as the amount of injection of the benzoic acid of the invention increases
same,formation of a subretinal scar (subretinal observation),"[1]; 50 μg subretinally injected with macrophages, in comparison to the control, FIG. 2A",formation of a scar was inhibited
same,collagen atrophy due to TGF (diameter of collagen gel),[2],can inhibit collagen atrophy due to TGF

# Reference: US12357613B2, “Inhibitor for retinochoroidal disorders” (YAMAGUCHI UNIVERSITY, priority 2013, dated 2025)
